Results on two compounds are retold here after patent US20250107523A1, “TRIGGERING DIATOM PROGRAMMED CELL DEATH BY STIMULATING INFOCHEMICAL SIGNALING SYSTEMS” (BATTELLE MEMORIAL INSTITUTE, priority 2023, published 2025).

One assay relates to model diatoms. As to conditions: cited from earlier work.
The subject of assay [1] is freshwater diatom Encyonema minutum var. pseudogracialis (Em). Description: Lethality experiments on diatom Em in 96-well plates, live/dead count by Neutral Red vital staining. The settings on record: 10 μM TDD alone; ~24 hours, 20° C.; n=3. The class given is cell-based.
Procedure: Em was maintained and tested at BMI in a modified filter-sterilized CR1-S algal medium with no soil particles so as to improve visualization and counting speed and accuracy.
All experiments were conducted in untreated polystyrene 96-well plates. Total liquid volume added to each well was 200 μL for all assays. At the start of each experiment, a conical tube of diatom Em was split into two and given fresh media (1:1 algae:media), then examined under a microscope to confirm vitality.
Lethality experiments were conducted with 6 different commercial algicides (AlgaeFix™, DINO X, Aquathol® K, Cutrine® Plus, GreenClean® PRO, and Hydrothol® 191 Granular) and two infochemicals (trans,trans-2,4-decadienal [TDD] and cholesterol-3-sulfate [C3S]). Fresh 50 mM or 25 mM stock solutions of each infochemical were prepared in DMSO immediately prior to each experiment. […]
Following incubation, 1.5 μL of filtered Neutral Red (0.8 g in 25 mL DI) for every 100 μL of solution (3 μL for 200 μL) was added to each well. […] A different staff member counted cells in 5 μL from each well using a hemocytometer under a microscope; this second staff member was not told which treatments were in which wells, so as to maintain single-blind data collection. Total cells were counted, along with live/dead characterization via Neutral Red vital cell staining, and time of well count completion.

For the compound `CC(C)CCC[C@@H](C)[C@H]1CC[C@H]2[C@@H]3CC=C4C[C@@H](OS(=O)(=O)O)CC[C@]4(C)[C@H]3CC[C@]12C` [C3S, cholesterol-3-sulfate, reference compound], the “Level leading to programmed-cell-death / cell death” value with model diatoms is listed as “micromolar levels”.

As to `CCCCC/C=C/C=C/C=O` [TDD, trans,trans-2,4-decadienal], in the assay with model diatoms, the “Level leading to programmed-cell-death / cell death” value is recorded as “micromolar levels”. For the same compound, the “Single treatment: lethality above negative control” value in assay [1] was 6.7%.
